Experiment [1] has as its system 3T3-L1 mouse adipocyte cells. The experiment can be described thus: Adipogenesis inhibitory assay (Oil Red-O staining). In kind it is cell-based. Conditions: for IC50: Mus musculus, 3T3-L1, Oil Red-O, OD 492 nm, read-out: IC50, inhibition of adipogenesis; for Adipogenesis inhibitory potential relative to Resveratrol: times more effective / superior than resveratrol. As to the method:
A common assay to measure adipocyte differentiation in cell culture is with the dye Oil Red-O, which is a lipid-soluble red dye. Since terminal differentiation of adipocytes is accompanied by the accumulation of great amounts of lipids in large cytoplasmic vesicles, a strong, bright, staining of the cytoplasm with this dye is a reliable indicator of adipocyte differentiation.
3T3-L1 mouse adipocyte cells are seeded at a density of 5000 cell/200 μl of adipocyte induction medium in a 96 well plate. After 48 hrs varying concentrations of the sample are added. After 72 hrs, the medium is changed to adipocyte progression medium along with the sample. The medium is similarly changed after another 48 hours. The plates are washed gently after 48 hrs with 100 μl of PBS. 100 μl of 10% formalin is used to fix the cells for 30 min keeping at RT. The cells are then washed twice with 60% isopropanol gently. 100 μl of clear Oil red O stain is added to the wells & kept for staining for 1 hr. The cells are then washed with 70% Ethanol twice, once with PBS and air dried. Then 100 μl of 4% triton×100 in isopropanol is added to all the wells covered tightly & kept it in a shaker for 20 min at […]. The OD reading is taken at 492 nm in microplate reader.
The results are expressed as IC50 values using Graphpad prism software. The percentage of inhibition of adipogenesis is calculated as follows,
Where C-absorbance due to adipogenesis in untreated cells T-absorbance due to adipogenesis in sample treated cells
Note: IC50 is the concentration required for 50% inhibition of adipogenesis. Lower IC50 indicates better efficacy.

The subject of experiment [2] is Propionibacterium acnes ATCC 11827. Briefly: Disc diffusion method, zone of inhibition. The format is cell-based. From the text:
Method: Disc diffusion method was done to study Minimum inhibitory concentration (MIC).
Materials • 1. Propionibacterium acnes ATCC 11827 • 2. Physiological saline or Buffered peptone water (BPW). • 3. Reinforced clostridium medium (RCM) Hi-media • 4. Reinforced clostridium agar (RCA) Hi-media • 5. Anaerobic chamber. • 6. Gassing manifold Nitrogen, mixed gases. • 7. Spectrophotometer (600 nm to 625 nm). • 8. Sterile Petri plates (150 mm×90 mm). • 9. Sterile micro pipettes and sterile micro tips. • 10. Sterile disc 6 mm. • 11. Samples tested: Resveratrol (Batch No.: C81173) and 3-Hydroxypsterostilbene (Batch No.: P80096)
The chamber used in the study is of COY LABORATORY USA model 8301-230, 3 ft polymer. The anaerobic chamber consists of a main chamber where in all the operations and incubation of the culture are carried out and a transfer chamber which is meant for taking the materials in and out of the equipment. The main chamber is provided with a heated fan box in order to maintain the required temperature (37° C.) and to circulate the air in the chamber. A catalyst stakpak is fixed to this fan box which consists of palladium catalyst, which is meant to convert oxygen to water molecules by reacting with hydrogen molecules. The anaerobic condition in the chamber for this is maintained by initialization with Nitrogen gas and then by the Mixture gas of N2+H2+CO2 in the proportion 80:10:10. Two gas tank arrangements have been done where only N2 is connected to the transfer chamber.
To carry out the antimicrobial activity of the products against P.acnes the organism was first cultured in the anaerobic conditions. Culture was inoculated into pre-sterile reinforced Clostridium medium (RCM) and incubated at anaerobic condition for 24 hrs. 24 hr to 48 hrs culture at Optical Density @625 nm was determined 0.632 (1:2 dilution) 4.0 Macfarland standards.
30 ml of sterilized RCM was poured into the pre-sterile Petri plates inside the chamber and allowed to solidify. The culture was inoculated (0.2 ml/plate) and spread evenly. After 30 minutes, antibacterial sterile discs (6 mm) were dispensed. […] 10 μl of the prepared sample and controls were dispensed onto the discs. The plates were incubated inside the anaerobic chamber at 37° C. for 24 to 48 hours duration.
A general note: A growth-free zone around the sample is the usual read-out of agar diffusion tests.

Experiment [3] has as its target T1, SIRT1 polypeptide (Homo sapiens, UniProt Q96EB6).
T1 construct: purchased Cayman Chemical Company 10010401
T1 sequence (Q96EB6 1-747): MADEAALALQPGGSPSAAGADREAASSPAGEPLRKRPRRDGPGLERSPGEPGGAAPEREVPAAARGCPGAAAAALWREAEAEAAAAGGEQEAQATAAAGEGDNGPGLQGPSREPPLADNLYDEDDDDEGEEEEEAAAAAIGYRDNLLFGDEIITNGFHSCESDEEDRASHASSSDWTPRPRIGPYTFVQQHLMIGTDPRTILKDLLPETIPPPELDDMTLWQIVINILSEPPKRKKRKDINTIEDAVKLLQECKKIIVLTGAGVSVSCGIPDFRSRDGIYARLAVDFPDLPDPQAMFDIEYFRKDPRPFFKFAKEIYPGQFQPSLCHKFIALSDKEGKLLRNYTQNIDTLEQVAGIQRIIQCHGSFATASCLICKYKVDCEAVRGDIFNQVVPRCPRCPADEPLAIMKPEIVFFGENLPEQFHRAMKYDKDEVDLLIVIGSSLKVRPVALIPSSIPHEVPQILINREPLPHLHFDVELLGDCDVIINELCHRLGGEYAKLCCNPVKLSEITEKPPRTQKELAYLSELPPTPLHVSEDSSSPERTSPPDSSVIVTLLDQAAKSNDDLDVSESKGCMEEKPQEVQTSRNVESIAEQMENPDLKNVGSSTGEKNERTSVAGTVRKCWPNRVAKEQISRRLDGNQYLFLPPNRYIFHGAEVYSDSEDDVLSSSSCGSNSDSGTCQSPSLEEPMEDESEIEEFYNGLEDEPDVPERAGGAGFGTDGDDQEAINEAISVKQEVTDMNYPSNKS
Briefly: SIRT 1 Direct fluorescent Screening Assay kit (Cayman). In kind it is biochemical. The conditions noted are these: read-out: Percentage SIRT 1 modulation; for activation at 1 µg/mL: 1 μg/ml; for activation at 10 µg/mL: 10 μg/ml. As to the method:
SIRT-1 activation/inhibition was measured using the SIRT 1 Direct fluorescent Screening Assay kit (Catalog No. 10010401) and instructions provided therein of Cayman Chemical Company, 1180 East Ellsworth Road, Ann Arbor, Mich. 48108 USA. (http://www.caymanchem.com/pdfs/10010401.pdf)

The mark [4] stands for this setting: sample 5.0 % (w/v) in DMSO, 10 μl per 6 mm disc.

By IC50 is commonly meant the midpoint of a concentration-inhibition curve. Turning to `Oc1ccc(/C=C/c2cc(O)cc(O)c2)cc1` [Resveratrol, 3,4′,5-trihydroxy-trans-stilbene], in experiment [1], the IC50 was 25 µM. Also, in experiment [2] (disc diffusion, 0.625% w/v), the “Concentration required to produce a zone of inhibition of 10 mm” value was determined as 6.25 mg/mL. Moreover, the Zone of inhibition entry is reported as “No zone” in experiment [2] (sample 0.078 % (w/v) in DMSO); “No zone” in experiment [2] (sample 0.156 % (w/v) in DMSO); “No zone” in experiment [2] (sample 0.31 % (w/v) in DMSO (3.12 mg/ml)); 10.0 mm in experiment [2] (sample 0.625 % (w/v) in DMSO); 12.0 mm in experiment [2] (sample 1.25 % (w/v) in DMSO); 13.0 mm in experiment [2] (sample 2.5 % (w/v) in DMSO). Also, in experiment [2] (setting [4]), the Zone of inhibition worked out at 13.0 mm. For the same compound, in experiment [3], the activation at 1 µg/mL amounted to 138%. In addition, the activation at 10 µg/mL in experiment [3] was 291%.

In the case of `COc1cc(/C=C/c2ccc(O)c(O)c2)cc(OC)c1` [3-hydroxypterostilbene], the IC50 in experiment [1] turned out to be 0.00483 µM. The “Adipogenesis inhibitory potential relative to Resveratrol” value in experiment [1] was “about 5000 times”; in experiment [1] (listed as 3,5-dimethoxy-3,4′-dihydroxystilbene), 5000 times. Besides, the Zone of inhibition entry in experiment [2] (sample 0.078 % (w/v) in DMSO) is reported as “No zone”; in experiment [2] (sample 0.156 % (w/v) in DMSO) it was “No zone”; in experiment [2] (sample 0.31 % (w/v) in DMSO (3.12 mg/ml), listed as 3-Hydroxy Pterostilbene), 10.0 mm; in experiment [2] (sample 0.31 % (w/v) in DMSO (3.12 mg/ml), listed as 3-Hydroxy pterostilbene), 10 mm; in experiment [2] (sample 0.625 % (w/v) in DMSO) it was 13.0 mm; in experiment [2] (sample 1.25 % (w/v) in DMSO) it was 15.0 mm. Also, the Zone of inhibition in experiment [2] (sample 2.5 % (w/v) in DMSO) is given as 17.0 mm; in experiment [2] (setting [4]), 18.0 mm. The activation at 1 µg/mL in experiment [3] was found to be 224%. Further, the activation at 10 µg/mL in experiment [3] turned out to be 669%.

Source of the values: patent publication US20100204340A1 (priority 2009, published 2010).
